Earlier results as cited in US11789016B2, “Methods, systems and kits for in-pen assays” (Berkeley Lights, Inc., priority 2017, dated 2023).
Like-named read-outs stand apart in the source and are kept apart here.

Target: IgG
Conditions: for Kd: read-out: Affinity for IgG

5′-rGp-rGp-rAp-rGp-rGp-fUp-rGp-fCp-fUp-fCp-fCp-rGp-rAp-rAp-rAp-rGp-rGp-rAp-rAp-fCp-fUp-fCp-fCp-3′ [CPD 5]
Kd (Fc of hIgG): 75 nM

CPD 1: Protein A-AF594, Pierce Recombinant Protein A (ThermoFisher Cat. # 77674)
Affinity for IgG (order of magnitude in words): nanomolar

DCAWHLGELVWCT [CPD 4, Asp Cys Ala Trp His Leu Gly Glu Leu Val Trp Cys Thr]
Kd (Fc): 100 nM
